# Laboratory results from patent publication US7445803B2, “Chromium (III) alpha amino acid complexes” (priority 2002, dated 2008).
# Like-named read-outs stand apart in the source and are kept apart here.
# What was measured:
# [1] = tested on: periparturient dairy cows
# From the text: The effects of supplementation with chromium in the form of chromium tri-L-methionine hydrochloride on performance of periparturient dairy cows were studied. Seventy-two cows were used to determine whether milk production and dry matter intake were affected by chromium tri-L-methionine hydrochloride supplementation of the diet during the periparturient period. Cows were fed either a diet high in nonforage fiber sources or high in non-fiber carbohydrates from day 21 before expected parturition until parturition and then fed a common lactating diet. Chromium tri-L-methionine hydrochloride was supplemented once daily via gelcap at doses of 0, 0.03, or 0.06 mg Cr/kg of metabolic body weight. Chromium supplementation began on day 21 before expected parturition and continued until day 28 postpartum. Cows were milked after calving according to established procedures. Feed intake was recorded daily for each cow throughout the experiment. Samples of the diet were obtained weekly and the dry matter contents were determined. Individual milk weights were recorded at each milking during the lactating phase of the experiment. Milk samples were taken from all milkings during one 24-hours period each week, composited based on the amount of milk produced at each milking, and analyzed for fat, protein, lactose, and total solids.
# [2] = Stability on addition of 0.1 molar sodium bicarbonate (precipitate formation); type: physicochemical
# Procedure: (§1) A 10 ml portion was diluted with 200 ml of a 0.1 molar solution of sodium bicarbonate. […] An additional 600 ml of 0.1 molar sodium bicarbonate solution was added.
# (§2) A 10 ml portion was diluted with 200 ml of a 0.1 molar solution of sodium bicarbonate.
# as §2
# [3] = pH of aqueous solution of the complex; type: physicochemical; details: 0.1 molar in water
# Procedure: as §1, §2, §2
# rat [4] = tested on: rat
# Procedure: Fifty 6 weeks old rats were used in the study (25 females and 25 males). Their body weight ranged from 130 to 220 g for males and 120-190 g for females. The animals were housed in polycarbonate cages over dust-free sawdust bedding in groups of five. The cages were placed in an air-conditioned room at 22° C. and 55% relative humidity. Rats were fed pelleted complete diet ad libitum. Animals were fasted overnight before dosing and given food 3-4 hours after dosing. Animals given water ad libitum. Animals were assigned at random to one of five treatments. Two groups of five animals each, one group of males and one group of females were assigned to each treatment. The treatments were control, 250 mg/kg, 500 mg/kg, 1000 mg/kg and 2000 mg/kg doses. A solution of the compound in water was administered in a single oral dose by gastric gavage. Animals were maintained for a 14-day observation period after receiving the dose. Surviving animals were killed on day 14. The weight of animals were recorded immediately before treatment, twice weekly for the study period and at death.
# [5] = after oral administration; cited from earlier work
# DNA = details: cited from earlier work
# [6] = cited from earlier work
# [7] = tested on: rat skeletal muscle cultures; details: rat skeletal muscle cultures in vitro; cited from earlier work
# [8] = tested on: Chinese hamster ovary cells; details: cited from earlier work
# Humans = details: dietary supplementation, males and females; cited from earlier work
# rat [9] = details: added to rat diet; cited from earlier work
# rats = details: cited from earlier work
# [10] = tested on: rat isolated adipose tissue; details: cited from earlier work
# [11] = 10 ml of 0.1 molar solution + 200 ml 0.1 molar sodium bicarbonate (20 molar equivalents)
# [12] = additional 600 ml 0.1 molar sodium bicarbonate (80 molar equivalents in all)
# [13] = slightly more than 2 equivalents of 0.1 molar sodium bicarbonate to a 0.1M solution
compound,measurement,setting,value
Chromium (III) Tri-methionate Hydrochloride [Example 1],% Milk Fat,[1]; 0.03 mg/kg BW^.75,4.41%
same,% Milk Lactose,[1]; 0.03 mg/kg BW^.75,4.69%
same,% Milk Protein,[1]; 0.03 mg/kg BW^.75,3.37%
same,% Milk Solids,[1]; 0.03 mg/kg BW^.75,13.39%
same,Milk Fat,[1]; 0.03 mg/kg BW^.75,1.76 kg/day
same,Milk Lactose,[1]; 0.03 mg/kg BW^.75,1.91 kg/day
same,Milk Production,[1]; 0.03 mg/kg BW^.75,40.6 kg/day
same,Milk Protein,[1]; 0.03 mg/kg BW^.75,1.33 kg/day
same,Milk Solids,[1]; 0.03 mg/kg BW^.75,5.37 kg/day
same,Postpartum Dry Matter Intake,[1]; 0.03 mg/kg BW^.75,18.9 kg/day
same,Prepartum Dry Matter Intake,[1]; 0.03 mg/kg BW^.75,13.9 kg/day
same,% Milk Fat,[1]; 0.06 mg/kg BW^.75,4.33%
same,% Milk Lactose,[1]; 0.06 mg/kg BW^.75,4.61%
same,% Milk Protein,[1]; 0.06 mg/kg BW^.75,3.15%
same,% Milk Solids,[1]; 0.06 mg/kg BW^.75,13.03%
same,Milk Fat,[1]; 0.06 mg/kg BW^.75,1.81 kg/day
same,Milk Lactose,[1]; 0.06 mg/kg BW^.75,1.98 kg/day
same,Milk Production,[1]; 0.06 mg/kg BW^.75,42.8 kg/day
same,Milk Protein,[1]; 0.06 mg/kg BW^.75,1.31 kg/day
same,Milk Solids,[1]; 0.06 mg/kg BW^.75,5.51 kg/day
same,Postpartum Dry Matter Intake,[1]; 0.06 mg/kg BW^.75,19.4 kg/day
same,Prepartum Dry Matter Intake,[1]; 0.06 mg/kg BW^.75,13.7 kg/day
same,effect on dry matter intake in cows,"[1]; diet supplementation, 0.03 or 0.06 mg Cr/kg metabolic body weight",did not affect
same,pH of the solution after sodium bicarbonate,[2]; [11],8.097
same,precipitate formation,[2]; [11],No precipitate was formed
same,pH of the solution after sodium bicarbonate,[2]; [12],8.354
same,precipitate formation,[2]; [12],No precipitate was formed
same,pH of a 0.1 molar solution in water,[3],4.078
same,body weight gain,"rat [4]; 2000 mg/kg dose, 4000 folds the recommended dose",slight decrease
same,food consumption compared to control,rat [4]; 1000 and 2000 mg/kg doses,dose related decrease
same,gain in body weight,rat [4]; dose 2000 folds the recommended dose,not associated with a decrease
same,toxicity in rats,rat [4]; doses used / high doses,non-toxic
same,decrease in body weight gain,"rat [4]; male rats, 2000 mg/kg single oral dose",5%
same,macroscopic abnormalities at necropsy,rat [4]; necropsied on day 14 after the oral dose,no macroscopic abnormalities
same,mortality,"rat [4]; single oral dose 250-2000 mg/kg, 14-day observation",No animals died
same,treatment-related clinical signs,"rat [4]; single oral dose, any of the dose levels (250-2000 mg/kg)",no treatment-related clinical signs
same,toxicity,"rat [4]; single oral dose, dose levels 1000 folds the recommended dose in pigs",did not induce any toxicity
Chromium (III) Tri-leucinate Hydrochloride [Example 2],pH of the solution after sodium bicarbonate,[2]; [11],7.987
same,precipitate formation,[2]; [11],No precipitate was formed
same,pH of a 0.1 molar solution in water,[3],3.996
CC(=O)/C=C(/C)[O-].CC(=O)/C=C(/C)[O-].CC(=O)/C=C(/C)[O-].[Cr+3] [Chromium Acetylacetonate],absorption from the gastrointestinal tract,[5],rapidly absorbed
chromium picolinate,DNA cleavage,DNA,cleaves DNA
same,water solubility,[6],limited
same,glucose uptake,[7],increased
same,chromosome damage,[8],produces chromosome damage
same,lean body mass,Humans,significant increase
same,glycation of hemoglobin,rat [9],prevented
same,plasma glucose,rat [9],significant decrease
same,toxicity in rats,"rats; rat, in vivo",lack of toxicity
"[Cl][Cr]([Cl])[Cl] [chromium chloride, reference compound]",pH of the mixture,[2]; [13],4.356
same,precipitate formation,[2]; [13],voluminous precipitate
same,toxicity in rats,rats; rats,lack of toxicity
chromium dinicotinate,insulin activity,[10],potentiated
